Tested on: Human Cav2.3 channel
Assay: Human Cav2.3 channel calcium-influx assay
Assay type: cell-based
Conditions: Fluo8 fluorescence, HEK-293 T-Rex/Kir2.1/Cav2.3e cells, without pluronic acid
Protocol: HEK-293 T-Rex cells were transfected with pcDNA3.1-Kir2.1 to generate a stable cell line. After antibiotic selection, the obtained stable pools were analysed using FLIPR^TETRA (membrane potential assay), and a limiting dilution was performed and a HEK-293 T-Rex/Kir2.1 clone was selected. The clone was transfected with pcDNA3.1-Cav2.3e and pBud-Cav-β4-α2δ1 to generate a stable cell line where the Cav2.3e expression is inducible. After antibiotic selection, functional clone pool analysis and two successive limiting dilutions, the final clone underwent a qPCR analysis and a biophysical and pharmacological validation using patch-clamp.
A compound plate, containing 10 test compounds in eight-points dose response with n=4, was prepared. Test compounds dose response curves were prepared in automated fashion in 100% DMSO at CyBio Felix and starting from a stock solution in 100% DMSO; a defined volume was serially moved into destination wells pre-filled with the desired DMSO volume; stock solution concentration volumes were dependent on the final compounds concentrations to be tested and the final DMSO content used in the assay. For the assay test compounds dose response curves ranged from 30 μM and half log dilution with 0.3% final DMSO. In order to obtain the 8-points dose response curve all the concentrations were created by starting from a 10 mM DMSO stock solution and then moving 9.5 μL into a destination well pre-filled with 20.5 μL of 100% DMSO and repeating this step seven times. This initial step was done into 96 MTP plates, 10 compounds/plate. One 384 MTP was then reformatted to contain all the 10 compounds at 8 concentrations, quadruplicate data points. This so obtained 384 MTP compound plate served as source plate in a “mother to child” process with a CyBi®-Well dispenser in which 0.7 μL of compounds were moved into a destination plate pre-filled with 57.6 μL of Tyrode's buffer 0 mM K+, thus obtaining 4× concentrated compounds solution. In columns 1-2 and 23-24 the control wells were added. Both “source” compound plate and “destination” compound plate were barcoded and a relationship between the two plates was thus generated.
The day before the experiment, cells were detached by gentle wash with DPBS, followed by 5 min incubation at 37° C. with Trypsin solution. Detached cells were diluted with OptiMEM+Doxycycline at 0.2 μg/mL, counted and plated in Poly-D-Lysine coated black/clear bottom (15.000 c/well in 20 μl/well) by the use of a MATRIX WellMate dispenser. Plates were placed into a humidified incubator at 37° C. with 5% CO2 until the experimental day. 24 h after seeding 10 μL/well of 1.5× Fluo8 NW dye solution prepared in Tyrode's buffer 0 mM K* were added on top of the seeding medium. Cell plates were incubated for 40-60 min at RT in the dark. We then Injected off-line 10 μL/well of test compounds and controls 4× concentrated in Tyrode's Buffer 0 mM K+ with the CyBi®-Well instrument. Cell plates were incubated 3 minutes at RT. Finally, we injected 20 μL/well of 3× concentrated activator solution (K20-Na130-Ca2 buffer: 20 mM KCl, 130 mM NaCl, 2 mM CaCl2, 10 mM HEPES, 10 mM Glucose, final concentrations, prepared starting from “K0-Na150-Ca2” and “K150-Na0-Ca2” buffers) at FDSS7000EX instrument and read emitted fluorescence for 130 seconds.
Data analysis was performed with Genedata Screener® software and reported compounds activity as % effect in relation to the normalization standards. The Kinetic Response Value (KRV) is calculated as follows:
KRV=Maximal fluorescence recorded from second 5 to second 130 minus baseline fluorescence, computed as average from second 1 to second 2, of the kinetic trace. The KRV was normalized versus Neutral Controls and Inhibitor Controls in order to obtain the Activity[%] for each well. […] Therefore, the compound activity values were scaled (based on the two references) to a common range (two-point normalization). […]

Cav2.3 (pIC50) | SMILES
7.51 | CCN([C@H](c1ccc(C)cc1)C(F)(F)F)S(=O)(=O)c1cncc(C#N)c1 [Example 106, (R)-5-Cyano-N-ethyl-N-(2,2,2-trifluoro-1-(p-tolyl)ethyl)pyridine-3-sulfonamide]
5.08 | CCN(C(c1ccccc1OC)C(F)(F)F)S(=O)(=O)c1cncc(C#N)c1 (centres unmarked) [Example 107, 5-Cyano-N-ethyl-N-(2,2,2-trifluoro-1-(2-methoxyphenyl)ethyl)pyridine-3-sulfonamide]
5.44 | CCN([C@@H](c1cccc(C)c1)C(F)(F)F)S(=O)(=O)c1cncc(C#N)c1 [Example 115, (S)-5-cyano-N-ethyl-N-(2,2,2-trifluoro-1-(m-tolyl)ethyl)pyridine-3-sulfonamide]
5.37 | COc1ccc(C(N(C)S(=O)(=O)C2CCOCC2)C(F)(F)F)cc1 (centres unmarked) [Example 125, N-methyl-N-(2,2,2-trifluoro-1-(4-methoxyphenyl)ethyl)tetrahydro-2H-pyran-4-sulfonamide]
5.12 | CN([C@@H](c1ccc(F)cc1)C(F)(F)F)S(=O)(=O)C1CCOCC1 [Example 131, (S)—N-methyl-N-(2,2,2-trifluoro-1-(4-fluorophenyl)ethyl)tetrahydro-2H-pyran-4-sulfonamide]
6.76 | CCN(C(c1ccc(F)cc1)C(F)(F)F)S(=O)(=O)c1ccn2ccnc2c1 (centres unmarked) [Example 135, N-ethyl-N-(2,2,2-trifluoro-1-(4-fluorophenyl)ethyl)imidazo[1,2-a]pyridine-7-sulfonamide]
6.78 | CCN([C@H](c1ccc(F)cc1)C(F)(F)F)S(=O)(=O)c1ccn2cnnc2c1 [Example 138, (R)—N-ethyl-N-(2,2,2-trifluoro-1-(4-fluorophenyl)ethyl)-[1,2,4]triazolo[4,3-a]pyridine-7-sulfonamide]
6.31 | CCNc1nc2ccc(S(=O)(=O)N(CC)[C@H](c3ccc(F)cc3)C(F)(F)F)cc2s1 [Example 139, (R)—N-ethyl-2-(ethylamino)-N-(2,2,2-trifluoro-1-(4-fluorophenyl)ethyl)benzo[d]thiazole-6-sulfonamide]
6.33 | CCN([C@H](c1ccc(F)cc1)C(F)(F)F)S(=O)(=O)c1ccc2cn[nH]c2c1 [Example 159, (R)—N-ethyl-N-(2,2,2-trifluoro-1-(4-fluorophenyl)ethyl)-1H-indazole-6-sulfonamide]
6.06 | CCN([C@H](c1ccc(F)cc1)C(F)(F)F)S(=O)(=O)c1ccc2cnn(C)c2c1 [Example 160, (R)—N-ethyl-1-methyl-N-(2,2,2-trifluoro-1-(4-fluorophenyl)ethyl)-1H-indazole-6-sulfonamide]
6.22 | CN([C@H](c1ccc(F)cc1)C(F)(F)F)S(=O)(=O)c1ccc2cnn(C)c2c1 [Example 161, (R)—N,1-dimethyl-N-(2,2,2-trifluoro-1-(4-fluorophenyl)ethyl)-1H-indazole-6-sulfonamide]
6.01 | CCN([C@H](c1ccc(F)cc1)C(F)(F)F)S(=O)(=O)c1ccc2c(c1)OC(F)(F)O2 [Example 162, (R)—N-ethyl-2,2-difluoro-N-(2,2,2-trifluoro-1-(4-fluorophenyl)ethyl)benzo[d][1,3]dioxole-5-sulfonamide]
5.76 | CN([C@H](c1ccc(F)cc1)C(F)(F)F)S(=O)(=O)c1ccc2c(c1)OC(F)(F)O2 [Example 163, (R)-2,2-difluoro-N-methyl-N-(2,2,2-trifluoro-1-(4-fluorophenyl)ethyl)benzo[d][1,3]dioxole-5-sulfonamide]

The remaining lines, values behind:

SMILES | Cav2.3 (pIC50)
CCN([C@@H](c1ccc(C)cc1)C(F)(F)F)S(=O)(=O)c1cncc(C#N)c1 [Example 105, (S)-5-Cyano-N-ethyl-N-(2,2,2-trifluoro-1-(p-tolyl)ethyl)pyridine-3-sulfonamide] | 5.38
CCN([C@@H](c1ccccc1OC)C(F)(F)F)S(=O)(=O)c1cncc(C#N)c1 [Example 108, (S)-5-cyano-N-ethyl-N-(2,2,2-trifluoro-1-(2-methoxyphenyl)ethyl)pyridine-3-sulfonamide] | 4.30
CCN([C@H](c1ccccc1OC)C(F)(F)F)S(=O)(=O)c1cncc(C#N)c1 [Example 109, (R)-5-cyano-N-ethyl-N-(2,2,2-trifluoro-1-(2-methoxyphenyl)ethyl)pyridine-3-sulfonamide] | 4.59
CCN(C(c1cccc(F)c1)C(F)(F)F)S(=O)(=O)c1cncc(C#N)c1 (centres unmarked) [Example 110, 5-Cyano-N-ethyl-N-(2,2,2-trifluoro-1-(3-fluorophenyl)ethyl)pyridine-3-sulfonamide] | 7.11
CCN([C@H](c1cccc(F)c1)C(F)(F)F)S(=O)(=O)c1cncc(C#N)c1 [Example 111, (R)-5-Cyano-N-ethyl-N-(2,2,2-trifluoro-1-(3-fluorophenyl)ethyl)pyridine-3-sulfonamide] | 7.63
CCN([C@@H](c1cccc(F)c1)C(F)(F)F)S(=O)(=O)c1cncc(C#N)c1 [Example 112, (S)-5-cyano-N-ethyl-N-(2,2,2-trifluoro-1-(3-fluorophenyl)ethyl)pyridine-3-sulfonamide] | 5.95
CCN(C(c1cccc(C)c1)C(F)(F)F)S(=O)(=O)c1cncc(C#N)c1 (centres unmarked) [Example 113, 5-Cyano-N-ethyl-N-(2,2,2-trifluoro-1-(m-tolyl)ethyl)pyridine-3-sulfonamide] | 6.96
CCN([C@H](c1cccc(C)c1)C(F)(F)F)S(=O)(=O)c1cncc(C#N)c1 [Example 114, (R)-5-cyano-N-ethyl-N-(2,2,2-trifluoro-1-(m-tolyl)ethyl)pyridine-3-sulfonamide] | 6.87
CCN([C@H](c1ccccc1F)C(F)(F)F)S(=O)(=O)c1cncc(C#N)c1 [Example 116, (R)-5-Cyano-N-ethyl-N-(2,2,2-trifluoro-1-(2-fluorophenyl)ethyl)pyridine-3-sulfonamide] | 5.81
CCN([C@@H](c1ccccc1F)C(F)(F)F)S(=O)(=O)c1cncc(C#N)c1 [Example 117, (S)-5-cyano-N-ethyl-N-(2,2,2-trifluoro-1-(2-fluorophenyl)ethyl)pyridine-3-sulfonamide] | 5.38
CCN(C(c1ccc(OC)cc1)C(F)(F)F)S(=O)(=O)C1CCOCC1 (centres unmarked) [Example 124, N-ethyl-N-(2,2,2-trifluoro-1-(4-methoxyphenyl)ethyl)tetrahydro-2H-pyran-4-sulfonamide] | 6.11
CN([C@H](c1ccc(F)cc1)C(F)(F)F)S(=O)(=O)C1CCOCC1 [Example 132, (R)—N-methyl-N-(2,2,2-trifluoro-1-(4-fluorophenyl)ethyl)tetrahydro-2H-pyran-4-sulfonamide] | 6.05
CCN([C@H](c1ccc(Cl)cc1)C(F)(F)F)S(=O)(=O)c1cncnc1 [Example 134, (R)—N-(1-(4-chlorophenyl)-2,2,2-trifluoroethyl)-N-ethylpyrimidine-5-sulfonamide] | 7.65
CCN([C@H](c1ccc(F)cc1)C(F)(F)F)S(=O)(=O)c1cnc2cc[nH]c2c1 [Example 149, (R)—N-ethyl-N-(2,2,2-trifluoro-1-(4-fluorophenyl)ethyl)-1H-pyrrolo[3,2-b]pyridine-6-sulfonamide] | 6.61
CCN([C@H](c1ccc(F)cc1)C(F)(F)F)S(=O)(=O)c1cc2nncn2cn1 [Example 152, (R)—N-ethyl-N-(2,2,2-trifluoro-1-(4-fluorophenyl)ethyl)-[1,2,4]triazolo[4,3-c]pyrimidine-7-sulfonamide] | 6.51
CCN([C@H](c1ccc(F)cc1)C(F)(F)F)S(=O)(=O)c1ccc2nc(N)sc2c1 [Example 154, (R)-2-amino-N-ethyl-N-(2,2,2-trifluoro-1-(4-fluorophenyl)ethyl)benzo[d]thiazole-6-sulfonamide] | 6.70

From patent US20250115569A1, “SULFONAMIDE COMPOUNDS FOR THE TREATMENT OF NEUROLOGICAL CONDITIONS” (LARIO THERAPEUTICS LIMITED, priority 2021, published 2025)
